Data from patent US6140368A, “Naphthols useful in antiviral methods” (The Regents of the University of California, priority 1998, dated 2000).

What follows are compounds tested against HIV reverse transcriptase (Human immunodeficiency virus type 1 group M subtype B, UniProt P03366) (assay: Reverse transcriptase scintillation proximity assay (Example 4, Table 2)). Conditions: 10 μM inhibitor; relative to dimethyl sulfoxide = 100%; 3 min.
Assay type: biochemical
Experimental: Reverse transcriptase ("RT") activity is measured using a scintillation proximity assay kit available from Amersham Life Sciences, Inc., which uses a biotin/streptavidin bead capture system. RNA-dependent polymerase activity is measured using purified […] and a synthetic 17mer/50mer RNA-DNA template-primer containing biotin at the 5' end of the DNA. The template-primer, buffer, dNTP, and inhibitor are incubated for 10 minutes at 37° C. before the RT is added. The final 100 μl reaction mixture contains: 39 nm of template primer, buffer (40 mM tris HCl at pH 8.0, 10 mM MgCl2, 60 mM KCl, 10 mM dithiothreitol); 75 nM of each dNTP except dTTP; 25 nM dTTP and 35 nM tritium labeled d*TTP; 10 μM inhibitor; and 1.0-2.0 μg of RT. After three minute incubation, the reaction is quenched with 40 μl of 0.56M EDTA. Then 10 μl of streptavidin SPA beads (in suspension) are added and incubated at 37° C. for 10 minutes. Finally, 850 μl of a buffer containing 10 mM Tris HCl pH 7.4 and 0.15M NaCl is added. The signal is produced by biotinylated polymers incorporating d*TTP binding to the streptavidin beads which stimulate the scintillant. The amount of d*TTP incorporated in the polymer is measured with a scintillation counter.
Compounds showing good inhibition will give a low number of counts/min (cpm). This number is related to a standard, dimethyl sulfoxide, which is given an arbitrary 100% relative activity. All cpm data in a single run are given a percent of this standard.

| Structure (SMILES) | % RT activity remaining at 10 μM [%] |
| --- | --- |
| O=C(Nc1ccc2c(O)c(N=Nc3ccc([As](=O)(O)O)cc3)c(S(=O)(=O)O)cc2c1)Nc1ccc2c(O)c(N=Nc3ccc([As](=O)(O)O)cc3)c(S(=O)(=O)O)cc2c1 [Compound 48] | 17 |

Same assay, conditions: 10 μM inhibitor; relative to dimethyl sulfoxide = 100%; 3 min, 10 µM

| Structure (SMILES) | % RT activity remaining at 10 μM |
| --- | --- |
| CCOC(=O)c1ccc(NC(=O)Nc2ccc3c(O)cc(S(=O)(=O)O)cc3c2)cc1 [Compound 28] | 100% |
| O=C(O)c1ccc(N=Nc2c(S(=O)(=O)O)cc3cc(NC(=O)c4cccc(C(=O)Nc5ccc6c(O)c(N=Nc7ccc(C(=O)O)cc7)c(S(=O)(=O)O)cc6c5)n4)ccc3c2O)cc1 [Compound 127] | .14% |

Same assay, conditions: 0.05 h, 10 μM inhibitor; relative to dimethyl sulfoxide = 100%; read-out: % RT activity remaining at 10 μM

| Structure (SMILES) | remaining activity at 10 µM [%] |
| --- | --- |
| O=C(Nc1ccc2c(O)cccc2c1)Nc1ccc2c(O)cc(S(=O)(=O)O)cc2c1 [Compound 6] | 84 |
| O=C(Nc1ccc2ccc(S(=O)(=O)O)cc2c1)Nc1ccc2c(O)cc(S(=O)(=O)O)cc2c1 [Compound 7] | 78 |
| O=C(Nc1ccc2c(O)cc(S(=O)(=O)O)cc2c1)Nc1ccc2cc(S(=O)(=O)O)cc(S(=O)(=O)O)c2c1 [Compound 8] | 83 |
| O=C(Nc1ccc2c(O)cc(S(=O)(=O)O)cc2c1)Nc1ccc2cc(S(=O)(=O)O)cc(O)c2c1 [Compound 9] | 75 |
| O=C(Nc1ccc2c(O)cc(S(=O)(=O)O)cc2c1)Nc1cccc2ccc(S(=O)(=O)O)cc12 [Compound 10] | 88 |
| O=C(Nc1ccc2c(O)cc(S(=O)(=O)O)cc2c1)Nc1cccc2ccccc12 [Compound 11] | 90 |
| CC(NC(=O)Nc1ccc2c(O)cc(S(=O)(=O)O)cc2c1)c1ccc(F)cc1 (centres unmarked) [Compound 12] | 88 |
| O=C(Nc1ccc2ccccc2c1)Nc1ccc2c(O)cc(S(=O)(=O)O)cc2c1 [Compound 13] | 82 |
| O=C(Nc1cnc2ccccc2c1)Nc1ccc2c(O)cc(S(=O)(=O)O)cc2c1 [Compound 14] | 90 |
| O=C(Nc1ccc2c(c1)C(=O)c1ccccc1C2=O)Nc1ccc2c(O)cc(S(=O)(=O)O)cc2c1 [Compound 15] | 88 |
| O=C(Nc1ccc2c(O)cc(S(=O)(=O)O)cc2c1)Nc1cccc2c(=O)[nH][nH]c(=O)c12 [Compound 16] | 81 |
| COC(=O)C(Cc1c[nH]c2ccccc12)NC(=O)Nc1ccc2c(O)cc(S(=O)(=O)O)cc2c1 (centres unmarked) [Compound 17] | 82 |
| Nc1cccc2c(NC(=O)Nc3ccc4c(O)cc(S(=O)(=O)O)cc4c3)cccc12 [Compound 19] | 80 |
| O=C(Nc1ccc2c(O)cc(S(=O)(=O)O)cc2c1)Nc1cccc2c1C(=O)c1ccccc1C2=O [Compound 20] | 86 |
| O=C(Nc1ccc2c(O)cc(S(=O)(=O)O)cc2c1)c1ccccc1 [Compound 21] | 108 |
| CC(=O)Nc1ccc2c(OC(C)=O)cc(S(=O)(=O)O)cc2c1 [Compound 22] | 100 |
| O=C1c2ccccc2C(=O)N1c1ccc2c(O)cc(S(=O)(=O)O)cc2c1 [Compound 23] | 100 |
| COC(=O)c1ccccc1NC(=O)Nc1ccc2cc(S(=O)(=O)O)cc(O)c2c1 [Compound 24] | 90 |
| CCOC(=O)c1ccc(NC(=O)Nc2ccc3c(O)cc(S(=O)(=O)O)cc3c2)cc1 [Compound 25] | 86 |
| COC(=O)c1cc(NC(=O)Nc2ccc3c(S(=O)(=O)O)cc(S(=O)(=O)O)cc3c2)cc(C(=O)OC)c1 [Compound 26] | 88 |
| COC(=O)c1cc(NC(=O)Nc2ccc3cc(S(=O)(=O)O)cc(O)c3c2)cc(C(=O)OC)c1 [Compound 27] | 80 |
| COC(=O)c1ccccc1NC(=O)Nc1ccc2c(O)cc(S(=O)(=O)O)cc2c1 [Compound 29] | 108 |
| CCOC(=O)c1ccc(N=Nc2c(S(=O)(=O)O)cc3cc(NC(=O)Nc4ccc5c(O)c(N=Nc6ccc(C(=O)OCC)cc6)c(S(=O)(=O)O)cc5c4)ccc3c2O)cc1 [Compound 44] | 19 |

| Structure (SMILES) | remaining activity at 10 µM [%] |
| --- | --- |
| CCOC(=O)c1cccc(NC(=O)Nc2ccc3cc(S(=O)(=O)O)cc(O)c3c2)c1 [Compound 75] | 85 |
| O=C(Nc1ccc2cc(S(=O)(=O)O)cc(O)c2c1)Nc1ccc2cc(S(=O)(=O)O)cc(O)c2c1 [Compound 77] | 84 |
| O=C(Nc1ccc2cc(S(=O)(=O)O)cc(S(=O)(=O)O)c2c1)Nc1ccc2cc(S(=O)(=O)O)cc(S(=O)(=O)O)c2c1 [Compound 78] | 80 |
| O=C(Nc1ccc(S(=O)(=O)O)c2ccccc12)Nc1ccc(S(=O)(=O)O)c2ccccc12 [Compound 79] | 78 |
| O=C(Nc1ccc2ccc(S(=O)(=O)O)cc2c1)Nc1ccc2ccc(S(=O)(=O)O)cc2c1 [Compound 80] | 84 |
| O=C(Nc1ccc2c(S(=O)(=O)O)cccc2c1)Nc1ccc2c(S(=O)(=O)O)cccc2c1 [Compound 81] | 78 |
| O=C(Nc1ccc2cc(S(=O)(=O)O)ccc2c1)Nc1ccc2cc(S(=O)(=O)O)ccc2c1 [Compound 82] | 92 |
| COC(=O)c1cc(NC(=O)Nc2ccc3c4c(cccc24)C(=O)OC3=O)cc(C(=O)OC)c1 [Compound 83] | 77 |
| CCOC(=O)c1ccc(N=Nc2c(S(=O)(=O)O)cc3ccc(NC(=O)Nc4ccc5cc(S(=O)(=O)O)c(N=Nc6ccc(C(=O)OCC)cc6)c(O)c5c4)cc3c2O)cc1 [Compound 84] | 1.7 |
| O=C(O)c1ccc(N=Nc2c(S(=O)(=O)O)cc3cc(NC(=O)c4cccc(C(=O)Nc5ccc6c(O)c(N=Nc7ccc(C(=O)O)cc7)c(S(=O)(=O)O)cc6c5)n4)ccc3c2O)cc1 [Compound 118] | 0.25 |
| O=C(O)Cc1ccc(N=Nc2c(S(=O)(=O)O)cc3cc(NC(=O)c4cccc(C(=O)Nc5ccc6c(O)c(N=Nc7ccc(CC(=O)O)cc7)c(S(=O)(=O)O)cc6c5)n4)ccc3c2O)cc1 [Compound 119] | 0.29 |
| O=C(O)CCc1ccc(N=Nc2c(S(=O)(=O)O)cc3cc(NC(=O)c4cccc(C(=O)Nc5ccc6c(O)c(N=Nc7ccc(CCC(=O)O)cc7)c(S(=O)(=O)O)cc6c5)n4)ccc3c2O)cc1 [Compound 120] | 0.21 |
| O=C(O)CCCCCc1ccc(N=Nc2c(S(=O)(=O)O)cc3cc(NC(=O)c4cccc(C(=O)Nc5ccc6c(O)c(N=Nc7ccc(CCCCCC(=O)O)cc7)c(S(=O)(=O)O)cc6c5)n4)ccc3c2O)cc1 [Compound 121] | 0.16 |
| O=C(O)/C=C/c1ccc(N=Nc2c(S(=O)(=O)O)cc3cc(NC(=O)c4cccc(C(=O)Nc5ccc6c(O)c(N=Nc7ccc(/C=C/C(=O)O)cc7)c(S(=O)(=O)O)cc6c5)n4)ccc3c2O)cc1 [Compound 123] | 0.2 |
| O=C(O)CC(C(=O)O)c1ccc(N=Nc2c(S(=O)(=O)O)cc3cc(NC(=O)c4cccc(C(=O)Nc5ccc6c(O)c(N=Nc7ccc(C(CC(=O)O)C(=O)O)cc7)c(S(=O)(=O)O)cc6c5)n4)ccc3c2O)cc1 (centres unmarked) [Compound 124] | 1.2 |
| O=C(Nc1ccc2c(O)c(N=Nc3cc(F)c(F)c(C(=O)O)c3F)c(S(=O)(=O)O)cc2c1)c1cccc(C(=O)Nc2ccc3c(O)c(N=Nc4cc(F)c(F)c(C(=O)O)c4F)c(S(=O)(=O)O)cc3c2)n1 [Compound 126] | 0.16 |
| COc1cc(N=Nc2c(S(=O)(=O)O)cc3cc(NC(=O)c4cccc(C(=O)Nc5ccc6c(O)c(N=Nc7cc(OC)c(OC)c(OC)c7C(=O)O)c(S(=O)(=O)O)cc6c5)n4)ccc3c2O)c(C(=O)O)c(OC)c1OC [Compound 128] | 5 |
| Cc1cc(C(=O)O)ccc1N=Nc1c(S(=O)(=O)O)cc2cc(NC(=O)c3cccc(C(=O)Nc4ccc5c(O)c(N=Nc6ccc(C(=O)O)cc6C)c(S(=O)(=O)O)cc5c4)n3)ccc2c1O [Compound 130] | 0.35 |
| O=C(Nc1ccc2c(O)cc(S(=O)(=O)O)cc2c1)c1cc(=O)cc(C(=O)Nc2ccc3c(O)cc(S(=O)(=O)O)cc3c2)o1 [Compound 131] | 48 |
| O=C(O)c1ccc(N=Nc2c(S(=O)(=O)O)cc3cc(NC(=O)c4cc(=O)cc(C(=O)Nc5ccc6c(O)c(N=Nc7ccc(C(=O)O)cc7)c(S(=O)(=O)O)cc6c5)o4)ccc3c2O)cc1 [Compound 132] | 0.19 |
| O=C(O)Cc1ccc(N=Nc2c(S(=O)(=O)O)cc3cc(NC(=O)c4cc(=O)cc(C(=O)Nc5ccc6c(O)c(N=Nc7ccc(CC(=O)O)cc7)c(S(=O)(=O)O)cc6c5)o4)ccc3c2O)cc1 [Compound 133] | 0.4 |
| O=C(O)CCc1ccc(N=Nc2c(S(=O)(=O)O)cc3cc(NC(=O)c4cc(=O)cc(C(=O)Nc5ccc6c(O)c(N=Nc7ccc(CCC(=O)O)cc7)c(S(=O)(=O)O)cc6c5)o4)ccc3c2O)cc1 [Compound 134] | 0.25 |

Same assay, conditions: 0.05 h, read-out: % RT activity remaining at 10 μM

| Structure (SMILES) | remaining activity at 10 µM [%] |
| --- | --- |
| O=C(NC(=O)Oc1ccccc1)Nc1ccc2cc(S(=O)(=O)O)cc(O)c2c1 [Compound 30] | 87 |

Same assay, conditions: read-out: IC50 (RT activity)

| Structure (SMILES) | IC50 [µM] |
| --- | --- |
| O=C(O)/C=C/c1ccc(N=Nc2c(S(=O)(=O)O)cc3ccc(NC(=O)Nc4ccc5cc(S(=O)(=O)O)c(N=Nc6ccc(/C=C/C(=O)O)cc6)c(O)c5c4)cc3c2O)cc1 [Compound 86] | 1.2 |
